Reference: patent US20090186832A1 (priority 2008, published 2009)
Several values for one entry are separate records, joined by “and”; a condition that tells them apart may be missing. Identical values can stand only once. Counter-ions that a name gives are not always drawn. Like-named read-outs stand apart in the source and are kept apart here. Marks after values point to notes of the source that are not given here.

Experiments:
[1] = for Meptazinol T>50% Cmax: analyte meptazinol, oral 1 mg meptazinol free base equivalents/kg; for AUC (mean ngh/mL ± SD): plasma meptazinol, oral 1 mg meptazinol free base/kg
[2] = for Simulated gastric fluid (pH 1.1): % remaining after 2 h/37° C. / Simulated intestinal fluid (pH 6.8): % remaining after 2 h/37° C.: simulated gi fluid
[3] = dog, in vivo; for Cmax (mean ng/mL ± SD) / AUC (mean ngh/mL ± SD): po
[4] = cited from earlier work

CCC1(c2cccc(OC(=O)N[C@H](C(=O)O)C(C)C)c2)CCCCN(C)C1 (stereo partly shown) [Meptazinol valine carbamate HCl, 2-[3-(3-Ethyl-1-methyl-azepin-3-yl)-phenoxycarbonylamino]-3-methyl-butyric acid hydrochloride]
Meptazinol T>50% Cmax ([1]; individual dogs 1-5, hydrochloride): 0.5 h (3×) and 1.5 h (2×) | Meptazinol T>50% Cmax ([1]; median value): 0.5^a h | AUC (mean ngh/mL ± SD) ([1]; group 2 dogs (G2), hydrochloride): 67.6 ± 9.2 ngh/mL

CCC1(c2cccc(OC(=O)N[C@H](C(=O)O)C(C)C)c2)CCCCN(C)C1 (stereo partly drawn) [Meptazinol valine carbamate TFA salt, meptazinol-(S)-valine carbamate trifluoroacetate]
AUC (mean ngh/mL ± SD) ([1]; group 1 dogs (G1)): 67.7 ± 25 ngh/mL

CCC1(c2cccc(OC(=O)N[C@H](C(=O)O)C(C)C)c2)CCCCN(C)C1 (stereo partly shown) [Meptazinol valine carbamate camsylate]
AUC (mean ngh/mL ± SD) ([1]; group 1 dogs (G1)): 62.4 ± 20.4 ngh/mL

CCC1(c2cccc(OC(=O)N[C@H](C(=O)O)C(C)C)c2)CCCCN(C)C1 (stereo partly shown) [Meptazinol valine carbamate zwitterion]
AUC (mean ngh/mL ± SD) ([1]; group 2 dogs (G2)): 84.9 ± 40.6 ngh/mL

CCC1(c2cccc(OC(=O)N[C@H](C(=O)O)C(C)C)c2)CCCCN(C)C1 (stereo partly shown) [Meptazinol-Val-Carbamate]
pH 10.0 buffer: % remaining after 2 h/20° C. [2]: 66%

CN1CC[C@]23c4c5ccc(O)c4O[C@H]2C(=O)CC[C@@]3(O)[C@H]1C5 [Oxymorphone HCl, reference compound]
Cmax (mean ng/mL ± SD) ([3]; Beagle, 0.5 mg/kg): 3.8 ± 0.77 ng/mL | AUC (mean ngh/mL ± SD) [3]: 12.2 ± 1.6

CN1CC[C@]23c4c5ccc(OC(=O)NCC(=O)O)c4O[C@H]2C(=O)CC[C@@]3(O)[C@H]1C5.O=C(O)C(F)(F)F [Oxymorphone glycine carbamate TFA]
Mean relative bioavailability % [3]: 554% | AUC (mean ngh/mL ± SD) [3]: 67.9 ± 34.1 | Cmax (mean ng/mL ± SD) [3]: 21 ± 10.9 ng/mL

CSCC[C@@H](NC(=O)Oc1ccc2c3c1OC1C(=O)CC[C@@]4(O)[C@@H](C2)N(C)CC[C@]314)C(=O)O (stereo partly shown) [Oxymorphone methionine carbamate TFA]
Mean relative bioavailability % ([3]; Beagle, 0.5 mg/kg): 436% | Cmax (mean ng/mL ± SD) ([3]; Beagle, 0.5 mg/kg): 13.8 ± 4.6 ng/mL | AUC (mean ngh/mL ± SD) [3]: 55.4 ± 15.2

CN1CC[C@]23c4c5ccc(OC(=O)N[C@@H](Cc6ccccc6)C(=O)O)c4O[C@H]2C(=O)CC[C@@]3(O)[C@H]1C5.Cl [Oxymorphone phenylalanine carbamate HCl]
Mean relative bioavailability % [3]: 244% | AUC (mean ngh/mL ± SD) [3]: 29.5 ± 2.2 | Cmax (mean ng/mL ± SD) [3]: 5.45 ± 1.32 ng/mL

CN1CC[C@]23c4c5ccc(OC(=O)N[C@@H](Cc6ccc(O)cc6)C(=O)O)c4O[C@H]2C(=O)CC[C@@]3(O)[C@H]1C5.O=C(O)C(F)(F)F [Oxymorphone tyrosine carbamate TFA]
Mean relative bioavailability % [3]: 157% | AUC (mean ngh/mL ± SD) [3]: 17.3 ± 3.0 | Cmax (mean ng/mL ± SD) [3]: 4.62 ± 1.12 ng/mL

CSCC[C@@H](NC(=O)Oc1ccc2c3c1OC1C(=O)CC[C@@]4(O)[C@@H](C2)N(C)CC[C@]314)C(=O)O (stereo partly shown) [Oxymorphone-Methio-Carbamate]
pH 10.0 buffer: % remaining after 2 h/20° C. [2]: 8% | Distilled water (pH 5.9): % remaining after 2h/20° C. [2]: 100% | Simulated gastric fluid (pH 1.1): % remaining after 2 h/37° C. [2]: 100% | Simulated intestinal fluid (pH 6.8): % remaining after 2 h/37° C. [2]: 96%

CN1CC[C@]23c4c5ccc(OC(=O)N[C@@H](Cc6ccccc6)C(=O)O)c4O[C@H]2C(=O)CC[C@@]3(O)[C@H]1C5 [Oxymorphone-Phe-Carbamate]
pH 10.0 buffer: % remaining after 2 h/20° C. [2]: 17% | Distilled water (pH 5.9): % remaining after 2h/20° C. [2]: 100% | Simulated gastric fluid (pH 1.1): % remaining after 2 h/37° C. [2]: 100% | Simulated intestinal fluid (pH 6.8): % remaining after 2 h/37° C. [2]: 82%

CCC1(c2cccc(O)c2)CCCCN(C)C1 (stereo not shown) [meptazinol, 3-(3-Ethyl-1-methyl-azepan-3-yl)-phenol]
relative standard deviation (variability in meptazinol levels, mean AUC) ([1]; beagle, dog, in vivo, po): 26% | Meptazinol AUC ([1]; beagle, dog, in vivo, po, 1 mg): 12.8±3.4 | range of observed oral bioavailabilities ([4]; oral, Norbury et al. (1983)): 2-20% | reported mean bioavailability values ([4]; oral, Norbury et al. (1983)): 4-9% | oral dose removed as it passes through the liver (first pass metabolism) ([4]; oral): up to 98% | bioavailability ([4]; rectal formulation, Murray et al. (1989)): 15-20%

Oxymorphone isoleucine carbamate TFA
Mean relative bioavailability % [3]: 570% | AUC (mean ngh/mL ± SD) [3]: 65.8 ± 32 | Cmax (mean ng/mL ± SD) [3]: 17.2 ± 9.9 ng/mL

Oxymorphone valine carbamate TFA
Mean relative bioavailability % [3]: 816% | AUC (mean ngh/mL ± SD) [3]: 51.2 ± 35 | Cmax (mean ng/mL ± SD) [3]: 14.6 ± 8.69 ng/mL

Oxymorphone-Isoleu-Carbamate
pH 10.0 buffer: % remaining after 2 h/20° C. [2]: 36% | Distilled water (pH 5.9): % remaining after 2h/20° C. [2]: 100% | Simulated gastric fluid (pH 1.1): % remaining after 2 h/37° C. [2]: 100% | Simulated intestinal fluid (pH 6.8): % remaining after 2 h/37° C. [2]: 97%

Oxymorphone-Val-Carbamate
pH 10.0 buffer: % remaining after 2 h/20° C. [2]: 32% | Distilled water (pH 5.9): % remaining after 2h/20° C. [2]: 100% | Simulated gastric fluid (pH 1.1): % remaining after 2 h/37° C. [2]: 100% | Simulated intestinal fluid (pH 6.8): % remaining after 2 h/37° C. [2]: 97%
